According to PubChem BioAssay (NCI):
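Growth conditions: 96-well plates. Treatment: test compound, 48 hours, 5 concentrations. Analysis: linear interpolation between bracketing concentrations; unreached endpoints set to highest concentration. GI50 is the concentration that inhibits growth by half. TGI marks complete inhibition of growth.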

Key:
Experiment in all cases: NCI-60 cell line screen, 48 h
[1] = tested on: 786-0 renal
[2] = tested on: A498 renal
[3] = tested on: A549 NSCLC
[4] = tested on: ACHN renal
[5] = tested on: BT-549 breast
[6] = tested on: CAKI-1 renal
[7] = tested on: CCRF-CEM leukemia
[8] = tested on: COLO 205 colon
[9] = tested on: DU-145 prostate
[10] = tested on: EKVX NSCLC
[11] = tested on: HCC-2998 colon
[12] = tested on: HCT-116 colon
[13] = tested on: HCT-15 colon
[14] = tested on: HL-60(TB) leukemia
[15] = tested on: HOP-62 NSCLC
[16] = tested on: HOP-92 NSCLC
[17] = tested on: HS 578T breast
[18] = tested on: HT29 colon
[19] = tested on: IGROV1 ovarian
[20] = tested on: K-562 leukemia
[21] = tested on: KM12 colon
[22] = tested on: LOX IMVI melanoma
[23] = tested on: M14 melanoma
[24] = tested on: MALME-3M melanoma
[25] = tested on: MCF7 breast
[26] = tested on: MDA-MB-231 breast
[27] = tested on: MDA-MB-435
[28] = tested on: MDA-MB-468 breast
[29] = tested on: MOLT-4 leukemia
[30] = tested on: NCI-H226 lung
[31] = tested on: NCI-H23 lung
[32] = tested on: NCI-H460 lung
[33] = tested on: NCI-H522 lung
[34] = tested on: NCI/ADR-RES ovarian
[35] = tested on: OVCAR-3 ovarian
[36] = tested on: OVCAR-4 ovarian
[37] = tested on: OVCAR-5 ovarian
[38] = tested on: OVCAR-8 ovarian
[39] = tested on: PC-3 prostate
[40] = tested on: RPMI-8226 leukemia
[41] = tested on: RXF 393 renal
[42] = tested on: SF-268 CNS
[43] = tested on: SF-295 CNS
[44] = tested on: SF-539 CNS
[45] = tested on: SK-MEL-2 melanoma
[46] = tested on: SK-MEL-28 melanoma
[47] = tested on: SK-MEL-5 melanoma
[48] = tested on: SK-OV-3 ovarian
[49] = tested on: SN12C renal
[50] = tested on: SNB-19 CNS
[51] = tested on: SNB-75 CNS
[52] = tested on: SR leukemia
[53] = tested on: SW-620 colon
[54] = tested on: T-47D breast
[55] = tested on: TK-10 renal
[56] = tested on: U251 CNS
[57] = tested on: UACC-257 melanoma
[58] = tested on: UACC-62 melanoma
[59] = tested on: UO-31 renal

Cc1ccc(-c2ccc(SCC(=O)Nc3ccc(S(N)(=O)=O)cc3Br)nn2)cc1
GI50 [1]: 16.4 µM | TGI [1]: 47 µM | GI50 [2]: 19.3 µM | TGI [2]: 34.4 µM | GI50 [3]: 15 µM | TGI [3]: 30.9 µM | GI50 [4]: 12 µM | TGI [4]: 24.4 µM | GI50 [5]: 15.7 µM | TGI [5]: 44.2 µM | GI50 [6]: 12.3 µM | TGI [6]: 28.5 µM | GI50 [7]: > 100 µM | TGI [7]: > 100 µM | GI50 [8]: 17.4 µM | TGI [8]: 41.2 µM | GI50 [9]: 13.3 µM | TGI [9]: 32.1 µM | GI50 [10]: 15.5 µM | TGI [10]: 31.3 µM | GI50 [11]: 11.5 µM | TGI [11]: 28.1 µM | GI50 [12]: 3.67 µM | TGI [12]: 17.2 µM | GI50 [13]: 11.3 µM | TGI [13]: 23.4 µM | GI50 [14]: > 100 µM | TGI [14]: > 100 µM | GI50 [15]: 6.99 µM | TGI [15]: 24.2 µM | GI50 [16]: 2.97 µM | TGI [16]: 13.5 µM | GI50 [17]: 13.1 µM | TGI [17]: 45.3 µM | GI50 [18]: 7.6 µM | TGI [18]: 68.8 µM | GI50 [19]: 15.9 µM | TGI [19]: 31.3 µM | GI50 [20]: 36.3 µM | TGI [20]: > 100 µM | GI50 [21]: 28.3 µM | TGI [21]: > 100 µM | GI50 [22]: 10.4 µM | TGI [22]: 25.5 µM | GI50 [23]: 30.5 µM | TGI [23]: > 100 µM | GI50 [24]: 13.7 µM | TGI [24]: 28.8 µM | GI50 [25]: 15.4 µM | TGI [25]: 37.1 µM | GI50 [26]: 4.19 µM | TGI [26]: 15.5 µM | GI50 [27]: 25.4 µM | TGI [27]: > 100 µM | GI50 [28]: 15.3 µM | TGI [28]: 36.4 µM | GI50 [29]: > 100 µM | TGI [29]: > 100 µM | GI50 [30]: 7.32 µM | TGI [30]: 24.7 µM | GI50 [31]: 9.73 µM | TGI [31]: 21.4 µM | GI50 [32]: 10.3 µM | TGI [32]: 29 µM | GI50 [33]: 10.9 µM | TGI [33]: 25.4 µM | GI50 [34]: 9.62 µM | TGI [34]: > 100 µM | GI50 [35]: 16.9 µM | TGI [35]: 32.4 µM | GI50 [36]: 14.1 µM | TGI [36]: 35 µM | GI50 [37]: 15 µM | TGI [37]: 32.4 µM | GI50 [38]: 13.3 µM | TGI [38]: 29.6 µM | GI50 [39]: 5.64 µM | TGI [39]: 22.5 µM | GI50 [40]: > 100 µM | TGI [40]: > 100 µM | GI50 [41]: 3.96 µM | TGI [41]: 20.5 µM | GI50 [42]: 18.4 µM | TGI [42]: 48.9 µM | GI50 [43]: 10.5 µM | TGI [43]: 22.3 µM | GI50 [44]: 10.4 µM | TGI [44]: 22.2 µM | GI50 [45]: 16.4 µM | TGI [45]: 35.3 µM | GI50 [46]: 13.4 µM | TGI [46]: 27 µM | GI50 [47]: 13.1 µM | TGI [47]: 26.5 µM | GI50 [48]: 15.1 µM | TGI [48]: 29.3 µM | GI50 [49]: 23.8 µM | TGI [49]: 60 µM | GI50 [50]: 11.3 µM | TGI [50]: 23.3 µM | GI50 [51]: 13.6 µM | TGI [51]: 37.1 µM | GI50 [52]: 60.4 µM | TGI [52]: > 100 µM | GI50 [53]: 27.2 µM | TGI [53]: > 100 µM | GI50 [54]: 10.6 µM | TGI [54]: 34.3 µM | GI50 [55]: 17.6 µM | TGI [55]: 39.5 µM | GI50 [56]: 6.17 µM | TGI [56]: 24 µM | GI50 [57]: 22.7 µM | TGI [57]: 64.9 µM | GI50 [58]: 13.2 µM | TGI [58]: 26.2 µM | GI50 [59]: 14.7 µM | TGI [59]: 28.6 µM
